Molecules are shown by their SMILES.

Data on 24 molecules can be found in US11787785B2 (NOVARTIS AG, priority 2021, dated 2023).

For this test, the target named is T1, WIZ protein (HiBit-WIZ fusion protein) (Homo sapiens, UniProt O95785+Q96SW2).
T1 construct: expressed in transfected cells
The experiment in a line: Quantification of WIZ protein levels in HiBit tag fusion protein assay (WIZ HiBit assay in 293T cells). It is filed as cell-based. On the set-up: remaining activity / Dmax: dose or concentration left out as unconfirmed. The following applies: for DC50: WIZ HiBit assay in 293T cells, 10-point, 5-fold dose response, highest concentration 25 μM, about 18 hours, read-out: WIZ AC50. An outline of the steps: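 Luminescence after LgBit complementation quantified remaining HiBit-WIZ in lysates of single-copy stable 293T lines. Cells dosed ~18 h at 37 °C with 10-point, 5-fold dilutions (highest 25 μM); DMSO set to 100%, fitted curve gave % remaining at 25 μM (Amax).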

The mark [1] stands for this setting: HEK-293T, 100 − Amax, at 25 uM, 293T cells, read-out: % degradation of WIZ (100 − Amax).
Setting [2] is: HEK-293T, DMSO-normalized, curve-fitted percentage of WIZ-HiBit remaining at 25 uM, 293T cells, read-out: WIZ Amax.

T1 sequence (O95785 whole entry, the tested form may be a part): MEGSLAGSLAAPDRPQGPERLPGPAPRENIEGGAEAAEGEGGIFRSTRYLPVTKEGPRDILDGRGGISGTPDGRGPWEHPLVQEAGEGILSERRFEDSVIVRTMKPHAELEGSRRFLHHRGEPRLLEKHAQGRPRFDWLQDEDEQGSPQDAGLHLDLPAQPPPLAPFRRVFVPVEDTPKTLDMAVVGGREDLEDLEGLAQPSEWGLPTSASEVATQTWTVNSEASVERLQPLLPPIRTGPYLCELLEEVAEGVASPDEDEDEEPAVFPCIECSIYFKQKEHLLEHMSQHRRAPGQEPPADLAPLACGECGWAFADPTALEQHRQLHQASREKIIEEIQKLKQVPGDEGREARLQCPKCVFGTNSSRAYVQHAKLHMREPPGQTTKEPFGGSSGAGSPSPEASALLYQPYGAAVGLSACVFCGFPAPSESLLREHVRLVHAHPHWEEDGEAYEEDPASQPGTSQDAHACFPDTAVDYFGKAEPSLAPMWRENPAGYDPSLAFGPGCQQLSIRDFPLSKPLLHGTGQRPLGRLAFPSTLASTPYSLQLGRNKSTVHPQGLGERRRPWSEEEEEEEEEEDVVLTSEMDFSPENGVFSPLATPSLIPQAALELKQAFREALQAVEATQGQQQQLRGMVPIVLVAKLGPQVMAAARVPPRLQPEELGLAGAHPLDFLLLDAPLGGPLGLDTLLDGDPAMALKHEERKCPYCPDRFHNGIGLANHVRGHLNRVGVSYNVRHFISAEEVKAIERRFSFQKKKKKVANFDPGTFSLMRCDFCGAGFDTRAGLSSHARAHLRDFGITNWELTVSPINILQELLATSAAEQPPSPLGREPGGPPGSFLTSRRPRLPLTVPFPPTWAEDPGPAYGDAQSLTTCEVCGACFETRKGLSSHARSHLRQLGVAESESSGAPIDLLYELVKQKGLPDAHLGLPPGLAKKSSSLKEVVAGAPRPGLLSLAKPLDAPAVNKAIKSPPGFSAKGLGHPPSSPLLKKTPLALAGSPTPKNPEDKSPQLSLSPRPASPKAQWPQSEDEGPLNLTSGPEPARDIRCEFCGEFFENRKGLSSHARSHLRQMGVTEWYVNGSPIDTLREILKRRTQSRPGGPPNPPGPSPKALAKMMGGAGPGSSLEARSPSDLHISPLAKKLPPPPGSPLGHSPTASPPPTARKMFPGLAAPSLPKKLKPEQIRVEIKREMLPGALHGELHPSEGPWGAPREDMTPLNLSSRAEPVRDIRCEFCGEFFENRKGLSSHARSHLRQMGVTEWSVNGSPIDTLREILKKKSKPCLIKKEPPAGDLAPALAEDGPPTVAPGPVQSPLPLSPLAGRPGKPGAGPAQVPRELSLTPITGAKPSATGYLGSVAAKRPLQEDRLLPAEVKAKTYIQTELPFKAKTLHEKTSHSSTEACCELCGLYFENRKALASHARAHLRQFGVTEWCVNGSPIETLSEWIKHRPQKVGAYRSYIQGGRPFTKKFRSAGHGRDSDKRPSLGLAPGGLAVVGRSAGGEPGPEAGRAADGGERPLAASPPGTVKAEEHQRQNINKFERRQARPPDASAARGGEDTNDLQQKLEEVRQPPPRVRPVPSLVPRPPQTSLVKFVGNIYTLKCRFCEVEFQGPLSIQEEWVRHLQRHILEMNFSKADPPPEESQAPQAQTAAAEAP
T1 sequence (Q96SW2 whole entry, the tested form may be a part): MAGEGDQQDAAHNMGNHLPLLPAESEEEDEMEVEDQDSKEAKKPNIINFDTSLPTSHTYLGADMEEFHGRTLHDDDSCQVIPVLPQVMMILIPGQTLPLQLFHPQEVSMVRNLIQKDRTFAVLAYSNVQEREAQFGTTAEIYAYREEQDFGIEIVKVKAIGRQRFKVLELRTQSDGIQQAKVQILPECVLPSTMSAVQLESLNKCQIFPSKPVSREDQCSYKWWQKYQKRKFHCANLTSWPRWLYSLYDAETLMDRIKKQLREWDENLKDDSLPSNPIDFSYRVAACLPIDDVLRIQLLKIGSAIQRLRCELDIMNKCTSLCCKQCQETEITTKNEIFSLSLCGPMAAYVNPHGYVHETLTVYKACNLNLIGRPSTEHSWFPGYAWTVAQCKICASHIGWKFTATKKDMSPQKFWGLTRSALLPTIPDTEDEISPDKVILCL
T1 sequence (Q16531 whole entry partner, the tested form may be a part): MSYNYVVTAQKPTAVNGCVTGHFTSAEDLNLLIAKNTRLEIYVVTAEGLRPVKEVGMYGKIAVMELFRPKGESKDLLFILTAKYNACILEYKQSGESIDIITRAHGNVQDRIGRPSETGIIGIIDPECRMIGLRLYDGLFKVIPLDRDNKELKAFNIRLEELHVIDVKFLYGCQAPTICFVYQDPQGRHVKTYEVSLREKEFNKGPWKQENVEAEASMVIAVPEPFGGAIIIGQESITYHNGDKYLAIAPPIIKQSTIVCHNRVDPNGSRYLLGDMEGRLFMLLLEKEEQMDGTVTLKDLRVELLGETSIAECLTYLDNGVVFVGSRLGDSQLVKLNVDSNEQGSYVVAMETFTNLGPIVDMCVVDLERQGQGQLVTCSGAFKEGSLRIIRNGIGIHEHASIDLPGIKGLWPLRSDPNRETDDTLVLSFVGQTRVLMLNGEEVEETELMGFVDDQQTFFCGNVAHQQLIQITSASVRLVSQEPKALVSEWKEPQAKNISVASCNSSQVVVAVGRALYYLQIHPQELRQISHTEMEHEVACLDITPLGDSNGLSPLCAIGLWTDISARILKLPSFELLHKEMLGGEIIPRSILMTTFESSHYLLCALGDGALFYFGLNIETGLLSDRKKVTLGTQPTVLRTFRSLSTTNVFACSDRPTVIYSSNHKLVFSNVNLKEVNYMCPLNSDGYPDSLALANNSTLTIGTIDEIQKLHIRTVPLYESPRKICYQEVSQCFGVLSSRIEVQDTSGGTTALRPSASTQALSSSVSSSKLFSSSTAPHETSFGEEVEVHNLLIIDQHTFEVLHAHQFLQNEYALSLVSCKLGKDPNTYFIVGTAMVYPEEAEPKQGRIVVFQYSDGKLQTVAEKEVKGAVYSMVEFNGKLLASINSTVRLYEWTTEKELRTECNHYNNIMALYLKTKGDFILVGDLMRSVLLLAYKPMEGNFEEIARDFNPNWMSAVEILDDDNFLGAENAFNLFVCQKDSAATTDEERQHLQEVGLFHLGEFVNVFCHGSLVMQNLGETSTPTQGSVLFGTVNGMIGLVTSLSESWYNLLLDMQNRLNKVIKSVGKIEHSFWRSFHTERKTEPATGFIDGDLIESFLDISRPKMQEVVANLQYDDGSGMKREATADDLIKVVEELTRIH

`CC(C)CN1CCC(F)(Cc2ccn3ncc(N4CCC(=O)NC4=O)c3c2)CC1` [Example 124, 1-(5-((4-fluoro-1-isobutylpiperidin-4-yl)methyl)pyrazolo[1,5-a]pyridin-3-yl)dihydropyrimidine-2,4(1H,3H)-dione]: the DC50 was 502 nM. Besides, the Dmax at 25 µM under setting [1] is 58%. In addition, the remaining activity at 25 µM under setting [2] turned out to be 42%.

Take `O=C1CCN(c2cnn3ccc(CN4CCN(CC5CCCCC5)[C@@H](C(F)F)C4)cc23)C(=O)N1` [Example 246, (R)-1-(5-((4-(cyclohexylmethyl)-3-(difluoromethyl)piperazin-1-yl)methyl)pyrazolo[1,5-a]pyridin-3-yl)dihydropyrimidine-2,4(1H,3H)-dione]: the DC50 is over 25000 nM. Besides, under setting [1], the Dmax at 25 µM turned out to be 0%. Moreover, the remaining activity at 25 µM under setting [2] is 100%.

Consider `CC(C)CN1CCN(Cc2ccn3ncc(N4CCC(=O)NC4=O)c3c2)C(=O)C1` [Example 254, 1-(5-((4-isobutyl-2-oxopiperazin-1-yl)methyl)pyrazolo[1,5-a]pyridin-3-yl)dihydropyrimidine-2,4(1H,3H)-dione], for which the DC50 was over 25000 nM. Also, under setting [1], the Dmax at 25 µM was 0%. For the same molecule, the remaining activity at 25 µM under setting [2] amounted to 100%.

Take `COC[C@H]1CN(Cc2ccn3ncc(N4CCC(=O)NC4=O)c3c2)CCN1CC1CCCCC1` [Example 244, (R)-1-(5-((4-(cyclohexylmethyl)-3-(methoxymethyl)piperazin-1-yl)methyl)pyrazolo[1,5-a]pyridin-3-yl)dihydropyrimidine-2,4(1H,3H)-dione]: the DC50 worked out at 1180 nM. The Dmax at 25 µM under setting [1] was determined as 53%. Besides, the remaining activity at 25 µM under setting [2] was determined as 47%.

Turning to `O=C1CCN(c2cnn3ccc(CN4CCN(Cc5ccncc5)CC4)cc23)C(=O)N1` [Example 176], the DC50 is 1400 nM. Also, the Dmax at 25 µM under setting [1] turned out to be 38%. The remaining activity at 25 µM under setting [2] worked out at 62%.

As for `CC1(CN2CCC(Cc3ccn4ncc(N5CCC(=O)NC5=O)c4c3)CC2)COC1` [Example 118, 1-(5-((1-((3-methyloxetan-3-yl)methyl)piperidin-4-yl)methyl)pyrazolo[1,5-a]pyridin-3-yl)dihydropyrimidine-2,4(1H,3H)-dione], the DC50 was determined as 166 nM. For the same molecule, the Dmax at 25 µM under setting [1] worked out at 64%. In addition, the remaining activity at 25 µM under setting [2] was found to be 36%.

As for `C[C@@H]1CN(Cc2ccn3ncc(N4CCC(=O)NC4=O)c3c2)C[C@H](C)N1CC1CCOCC1` [Example 256, 1-(5-(((3S,5R)-3,5-dimethyl-4-((tetrahydro-2H-pyran-4-yl)methyl)piperazin-1-yl)methyl)pyrazolo[1,5-a]pyridin-3-yl)dihydropyrimidine-2,4(1H,3H)-dione], the DC50 was 186 nM. Further, the Dmax at 25 µM under setting [1] amounted to 78%. In addition, the remaining activity at 25 µM under setting [2] was 22%.

As for `CC(C)CCN1CCC(Cc2ccn3ncc(N4CCC(=O)NC4=O)c3c2)CC1` [Example 19, 1-(5-((1-isopentylpiperidin-4-yl)methyl)pyrazolo[1,5-a]pyridin-3-yl)dihydropyrimidine-2,4(1H,3H)-dione], the DC50 is 20 nM. Under setting [1], the Dmax at 25 µM was 81%. For the same molecule, the remaining activity at 25 µM under setting [2] was found to be 19%.

Take `C[C@H]1CC(F)(Cc2ccn3ncc(N4CCC(=O)NC4=O)c3c2)CCN1C1COC1` (single isomer, unassigned) [Example 311]: the DC50 was 310 nM. For the same molecule, for the setting “100 − Amax, at 25 uM, 293T cells”, the “% degradation of WIZ (100 − Amax)” value was 78%. Also, under “DMSO-normalized, curve-fitted percentage of WIZ-HiBit remaining at 25 uM, 293T cells”, the “WIZ Amax” value was determined as 22%.

Take `C[C@@H]1C[C@H](Cc2ccn3ncc(N4CCC(=O)NC4=O)c3c2)CCN1CC1CCOCC1` [Example 75]: the DC50 was 98 nM. Moreover, the Dmax at 25 µM under setting [1] amounted to 81%. In addition, the remaining activity at 25 µM under setting [2] stood at 19%.

With `CC(C)(C1CCC(F)(F)CC1)N1CCC(Cc2ccn3ncc(N4CCC(=O)NC4=O)c3c2)CC1` [Example 140, 1-(5-((1-(2-(4,4-difluorocyclohexyl)propan-2-yl)piperidin-4-yl)methyl)pyrazolo[1,5-a]pyridin-3-yl)dihydropyrimidine-2,4(1H,3H)-dione], the DC50 is 7 nM. Further, the Dmax at 25 µM under setting [1] amounted to 90%. Besides, under setting [2], the remaining activity at 25 µM came to 10%.

`O=C1CCN(c2cnn3ccc(CC4CCN(CC(F)(F)C5CCCCC5)CC4)cc23)C(=O)N1` [Example 112, 1-(5-((1-(2-cyclohexyl-2,2-difluoroethyl)piperidin-4-yl)methyl)pyrazolo[1,5-a]pyridin-3-yl)dihydropyrimidine-2,4(1H,3H)-dione]: the DC50 was 16 nM. Besides, the Dmax at 25 µM under setting [1] worked out at 66%. For the same molecule, under setting [2], the remaining activity at 25 µM worked out at 34%.

As to `C[C@H]1CN(Cc2ccn3ncc(N4CCC(=O)NC4=O)c3c2)CCN1C(=O)C1CCCCC1` [Example 342, (S)-1-(5-((4-(cyclohexanecarbonyl)-3-methylpiperazin-1-yl)methyl)pyrazolo[1,5-a]pyridin-3-yl)dihydropyrimidine-2,4(1H,3H)-dione], the DC50 is 916 nM. The Dmax at 25 µM under setting [1] amounted to 37%. Also, under setting [2], the remaining activity at 25 µM stood at 63%.

With `O=C1CCN(c2cnn3ccc(CC4CCN(C[C@H]5C[C@@H](F)[C@@H](F)C5)CC4)cc23)C(=O)N1` [Example 301, 1-(5-((1-(((1r,3R,4S)-3,4-difluorocyclopentyl)methyl)piperidin-4-yl)methyl)pyrazolo[1,5-a]pyridin-3-yl)dihydropyrimidine-2,4(1H,3H)-dione], the DC50 came to 2 nM. Besides, under setting [1], the Dmax at 25 µM is 86%. Besides, the remaining activity at 25 µM under setting [2] worked out at 14%.

Turning to `O=C1CCN(c2cnn3ccc(CN4CCN5C(=O)COC[C@H]5C4)cc23)C(=O)N1` [Example 314, (R)-1-(5-((4-oxohexahydropyrazino[2,1-c][1,4]oxazin-8(1H)-yl)methyl)pyrazolo[1,5-a]pyridin-3-yl)dihydropyrimidine-2,4(1H,3H)-dione], the DC50 is 2560 nM. The Dmax at 25 µM under setting [1] turned out to be 34%. The remaining activity at 25 µM under setting [2] was 66%.

Turning to `C[C@H]1CN(Cc2ccn3ncc(-n4ccc(=O)[nH]c4=O)c3c2)CCN1CC1CCC(F)(F)CC1` [Example 363, (S)-1-(5-((4-((4,4-difluorocyclohexyl)methyl)-3-methylpiperazin-1-yl)methyl)pyrazolo[1,5-a]pyridin-3-yl)pyrimidine-2,4(1H,3H)-dione], the DC50 was determined as 109 nM. In addition, under setting [1], the Dmax at 25 µM is 85%. Also, the remaining activity at 25 µM under setting [2] worked out at 15%.

As for `Cc1cccc(CN2CCN(Cc3ccn4ncc(N5CCC(=O)NC5=O)c4c3)CC2)c1` [Example 190, 1-(5-((4-(3-methylbenzyl)piperazin-1-yl)methyl)pyrazolo[1,5-a]pyridin-3-yl)dihydropyrimidine-2,4(1H,3H)-dione], the DC50 worked out at 86 nM. Further, the Dmax at 25 µM under setting [1] stood at 54%. Under setting [2], the remaining activity at 25 µM was found to be 46%.

In the case of `CC(C)S(=O)(=O)N1CCC(Cc2ccn3ncc(N4CCC(=O)NC4=O)c3c2)CC1` [Example 85], the DC50 worked out at 38 nM. Also, under setting [1], the Dmax at 25 µM is 83%. Further, under setting [2], the remaining activity at 25 µM came to 17%.

`CC(C)(F)CN1CCC(Cc2ccn3ncc(N4CCC(=O)NC4=O)c3c2)CC1` [Example 39, 1-(5-((1-(2-fluoro-2-methylpropyl)piperidin-4-yl)methyl)pyrazolo[1,5-a]pyridin-3-yl)dihydropyrimidine-2,4(1H,3H)-dione]: the DC50 stood at 83 nM. The Dmax at 25 µM under setting [1] worked out at 71%. In addition, the remaining activity at 25 µM under setting [2] came out at 29%.

In the case of `O=C1CCN(c2cnn3ccc(CC4C[C@H]5CC[C@@H](C4)N5Cc4cccnc4)cc23)C(=O)N1` (stereo partly drawn) [Example 68, 1-(5-(((1R,5S)-8-(pyridin-3-ylmethyl)-8-azabicyclo[3.2.1]octan-3-yl)methyl)pyrazolo[1,5-a]pyridin-3-yl)dihydropyrimidine-2,4(1H,3H)-dione], the DC50 stood at 384 nM. Besides, under setting [1], the Dmax at 25 µM turned out to be 57%. Besides, the remaining activity at 25 µM under setting [2] came out at 43%.

Turning to `C[C@H]1CN(Cc2ccn3ncc(N4CCC(=O)NC4=O)c3c2)CCN1C[C@@H]1CCC(F)(F)C1` [Example 319, 1-(5-(((S)-4-(((R)-3,3-difluorocyclopentyl)methyl)-3-methylpiperazin-1-yl)methyl)pyrazolo[1,5-a]pyridin-3-yl)dihydropyrimidine-2,4(1H,3H)-dione], the DC50 came out at 4 nM. Further, under setting [1], the Dmax at 25 µM turned out to be 78%. In addition, the remaining activity at 25 µM under setting [2] stood at 21%.

Take `O=C1CCN(c2cnn3ccc(CC4CCN(CC5COC5)CC4)cc23)C(=O)N1` [Example 119, 1-(5-((1-(oxetan-3-ylmethyl)piperidin-4-yl)methyl)pyrazolo[1,5-a]pyridin-3-yl)dihydropyrimidine-2,4(1H,3H)-dione]: the DC50 was found to be 109 nM. In addition, the Dmax at 25 µM under setting [1] is 82%. Besides, under setting [2], the remaining activity at 25 µM stood at 18%.

As to `COCCS(=O)(=O)N1CCC(Cc2ccn3ncc(N4CCC(=O)NC4=O)c3c2)CC1` [Example 92], the DC50 was determined as 131 nM. For the same molecule, under setting [1], the Dmax at 25 µM is 69%. In addition, under setting [2], the remaining activity at 25 µM turned out to be 31%.

As to `COC(C)(C)CN1CCC(Cc2ccn3ncc(N4CCC(=O)NC4=O)c3c2)CC1` [Example 105, 1-(5-((1-(2-methoxy-2-methylpropyl)piperidin-4-yl)methyl)pyrazolo[1,5-a]pyridin-3-yl)dihydropyrimidine-2,4(1H,3H)-dione], the DC50 came to 2160 nM. Besides, the Dmax (HEK-293T, read-out: % degradation of WIZ (100 − Amax)) turned out to be 64%. Besides, the remaining activity (HEK-293T, read-out: WIZ Amax) was determined as 36%.
